The text below walks through data of PubChem BioAssay (NCI).

Assay in all cases: NCI anticancer screen, dose series, 48 h
In test [1] the test system is HS 578T breast.
The subject of test [2] is HCT-116 colon.
The subject of test [3] is HCT-15 colon.
The subject of test [4] is 786-0 renal.
Test [5] deals with SF-268 CNS.
Test [6] has as its system NCI/ADR-RES ovarian.
The test system of test [7] is M14 melanoma.
The test system of test [8] is ACHN renal.
The subject of test [9] is A498 renal.
The subject of test [10] is MDA-MB-435.
The test system of test [11] is NCI-H23 lung.
Test [12] relates to MDA-N.

Each structure is given as a SMILES string.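 Cultured in 96-well plates, cells were exposed to test compound for 48 hours across five concentrations. Here, GI50 denotes the concentration required for 50% inhibition of growth. TGI: total growth inhibition.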 Where a SMILES comes first, the peptide text is derived from it. [ ]: non-standard residue; d: D form. The star is where a group is joined. Palmitoyl = CCCCCCCCCCCCCCCC(=O)*; Cbz = O=C(OCc1ccccc1)*; Aib = CC(C)(N)C(=O)O; OBn = c1ccc(CO*)cc1

With `O=C(CN1C(=O)CC(c2ccccc2)(c2ccccc2)C1=O)N1CCN(CCO)CC1`, the TGI in [1], in test [2], in [3], in test [4], in test [5] and in test [6] was more than 100 µM each time. Besides, the TGI in test [7], in test [8], in test [9], in test [10] and in test [11] was more than 100 µM throughout.
With `CN1CCN(Cc2cc3c(nn2)-c2ccccc2C3=O)CC1`, the TGI in [1] was more than 100 µM; in test [12], 52.3 µM; in test [2], more than 100 µM; in test [3], more than 100 µM; in test [4], more than 100 µM; in test [5], more than 100 µM. In addition, the TGI is more than 100 µM in [6]; more than 100 µM in [7]; 62.4 µM in test [8]; 50.2 µM in test [10]; more than 100 µM in [11].
On to `CC(NC(=O)C(C)(C)NC(=O)C(CC(=O)OCc1ccccc1)NC(=O)OCc1ccccc1)C(N)=O` (stereo not given) (Cbz-Asp(OBn)-[Aib]-Ala-NH2; configuration not given here), for which the TGI in test [1], in test [12], in [2], in test [3], in test [4] and in test [5] was more than 100 µM each time. The TGI in [6], in test [7], in [8], in test [10] and in test [11] was more than 100 µM in each case.
With `O=C1/C(=C/c2ccc(Cl)cc2)CCCc2ccccc21`, the TGI came out at 28.1 µM in test [1]; 33.3 µM in test [12]; 26.5 µM in test [2]; 27.7 µM in [3]; 32.4 µM in test [4]; 30.9 µM in test [5]. The TGI in [6] came out at 32.6 µM; in test [7], 28.9 µM; in test [8], 31.1 µM; in test [10], 36.1 µM; in test [11] it was 60.5 µM.
Regarding `CCCCCCCCCCCCCCCC(=O)N1CCCC1C(=O)NCC(=O)NC(Cc1ccccc1)C(=O)N1CCCC1C(=O)NC(CO)C(=O)NC(Cc1ccc(O)cc1)C(=O)NC(CCCCN)C(=O)NC(CC(C)C)C(=O)NC(CCCN=C(N)N)C(=O)N1CCCC1C(=O)NCC(N)=O` (stereo not given) (Palmitoyl-PGFPSYKLRPG-NH2; configuration not given here), the GI50 in [1] is 22.2 µM; in test [2], 14.8 µM; in test [5] it was 12.4 µM; in test [6] it was 18.2 µM; in [7], 14.2 µM; in [9], 32.8 µM. Moreover, the values for the GI50 in test [10] and in [11] were 23.6 µM and 18.7 µM, respectively. Besides, the TGI in [1] amounted to 74.5 µM; in test [2] it was 31.9 µM; in [5], 30.6 µM; in test [6], 39.2 µM; in test [7] it was 27.3 µM; in test [9] it was 93.2 µM. Moreover, the results for the TGI in test [10] and in test [11] were more than 100 µM and 36.6 µM, respectively.
With `Clc1sc(Cl)c2c1[C@@H](Cl)C[C@@H]2Br`, the TGI in test [1], in [12], in [2], in test [3], in test [4] and in test [5] was more than 100 µM throughout. The TGI in [7], in [8], in [10] and in test [11] was more than 100 µM throughout.
As for `O=C1C(=Nc2ccc(Nc3ccccc3)cc2)Oc2ccccc21`, the TGI in [12] was determined as 7.16 µM; in test [2] it was 3.18 µM; in [3] it was 13.2 µM; in [4] it was 3.37 µM; in [5], 9.73 µM; in [7] it was 5.38 µM. The TGI in [8] was 9.93 µM; in test [9], 21 µM; in test [10] it was 3.45 µM; in [11] it was 3.93 µM.
Take `O=C(OCC(Cl)(Cl)Cl)N1CC[C@H](C2CCCCC2)C1`: the TGI in [12] was more than 100 µM; in test [2] it was 31.6 µM; in test [3], 34.8 µM; in test [4] it was 33.1 µM; in test [5] it was 36.3 µM; in [6] it was 28.5 µM. In addition, the TGI in test [7] came out at 39.8 µM; in test [8], 36.7 µM; in test [11] it was 33.2 µM.
Consider `COc1ccc(CC(N)=O)cc1OC`, for which the TGI in test [2], in [3], in [5], in test [6], in [9] and in test [11] was more than 1250 µM throughout.
For the compound `Cc1cc(OP2(=O)NCc3ncccc3O2)ccc1Cl` (stereo not given), the TGI in [12], in [2], in test [3], in test [4], in [6] and in test [7] was more than 100 µM throughout. For the same compound, the TGI in [8], in [9], in test [10] and in test [11] was more than 100 µM each time.
Regarding `C=C(CN(C)C)C(=O)c1ccc(C(=O)C(=C)CN(C)C)cc1`, the TGI in test [2], in test [3], in test [4], in test [5], in test [7] and in test [8] was more than 100 µM each time. In addition, the TGI in test [9] and in test [11] was more than 100 µM each time.
On to `Nc1ncc2c(n1)-c1ccccc1OC2N1CCCC1` (stereo not given), for which the TGI in test [1], in [12], in test [2], in test [3], in [4] and in [5] was more than 100 µM each time. The TGI in test [6], in test [7], in [8], in [10] and in test [11] was more than 100 µM in each case.
Consider `O=C1NC(O)CCN1C1OC(CO)C(O)C1O` (stereo not given), for which the TGI in test [2] was more than 141 µM; in test [3] it was more than 250 µM; in [5], more than 250 µM; in test [6] it was more than 250 µM; in [9], more than 250 µM; in [11], more than 250 µM.
In the case of `COc1cc(C2c3cc4c(cc3[C@@H](Nc3ccccc3)C3COC(=O)[C@H]23)OCO4)cc(OC)c1O` (stereo not given in full), the TGI in test [2] came out at 6.27 µM; in test [3], 2.43 µM; in test [5], 13.2 µM; in test [6], 45.2 µM; in [9], 1.65 µM; in test [11] it was 3.01 µM.
With `O=C(NCCCl)O/N=C/c1cccnc1`, the TGI in [2], in [3], in test [5], in test [6], in [9] and in test [11] was more than 100 µM throughout. Also, the GI50 in test [9] is 78.2 µM.
For `COc1cc(C=O)ccc1O`, the TGI in test [1], in [12], in test [2], in test [3], in test [4] and in test [5] was more than 100 µM each time. Further, the TGI in [6], in [7], in test [8], in [10] and in test [11] was more than 100 µM each time.
On to `CSc1csc(-c2ccc(-c3ccc(-c4cc(SC)cs4)s3)s2)c1`, for which the TGI in test [1], in [12], in test [2], in test [3], in test [4] and in [5] was more than 100 µM in each case. The TGI in [6], in test [7], in test [8], in test [10] and in [11] was more than 100 µM each time.
In the case of `CC(C)C1=CC23CCC4C(C)(C(=O)O)CCCC4(C)C2CC1C1C(=O)N(CCCCCCN2C(=O)C4C5CC6C7(C)CCCC(C)(C(=O)O)C7CCC6(C=C5C(C)C)C4C2=O)C(=O)C13` (stereo not given), the TGI in test [1] worked out at 34.9 µM; in test [12] it was 28.4 µM; in [2] it was 20.9 µM; in [3], 30.4 µM; in test [5] it was 26.8 µM; in [7], 27.5 µM. The TGI in test [8] was 22.8 µM; in test [9], 24.3 µM; in test [10], 17.8 µM; in test [11], 14.9 µM.
In the case of `c1ccc(C(C(=Nc2ccc(Cc3ccc(N=C(C(c4ccccc4)c4ccccc4)N4CC4)cc3)cc2)N2CC2)c2ccccc2)cc1`, the TGI is 35.7 µM in [1]; more than 100 µM in test [2]; 21.7 µM in test [3]; 65.5 µM in test [4]; 21.8 µM in [5]; 24.2 µM in [6]. In addition, the TGI was determined as 70 µM in test [7]; 21.3 µM in [8]; 29.1 µM in test [9]; 21.1 µM in test [10]; 30.8 µM in test [11].
For the compound `O=C1N(Cc2ccccc2)C2CSCC2N1Cc1ccccc1` (stereo not given), the TGI in [1] is 66.5 µM; in test [12] it was 80 µM; in test [2], more than 100 µM; in [5] it was more than 100 µM; in test [6] it was 69.4 µM; in test [7], 33.7 µM. In addition, the TGI in test [8] is more than 100 µM; in test [10] it was 51.5 µM; in test [11] it was 85 µM.
Take `CCOC(=O)CNC(=O)NC12CC3CC(CC(C3)C1)C2`: the TGI in test [2] is more than 550 µM; in test [3] it was more than 550 µM; in test [5], more than 550 µM; in [6] it was more than 550 µM; in [9], 462 µM; in test [11], more than 515 µM.
Take `Cn1ncc2c(NCc3ccccc3)ncnc21`: the TGI in test [12], in [2], in [3], in test [4], in test [5] and in [6] was more than 100 µM in each case. Also, the TGI in test [8], in [9], in test [10] and in test [11] was more than 100 µM in each case.
Regarding `O[C@H]1[C@H](O)[C@@H](O)CN2CC[C@H](O)[C@H]12`, the TGI in [2], in test [3], in test [5], in test [6], in [9] and in test [11] was more than 100 µM in each case.
As to `[N-]=[N+]=CC(=O)OC(CCl)CCl`, the TGI in [12], in test [2], in [3], in test [4], in test [5] and in [8] was more than 100 µM in each case. The TGI in [9], in test [10] and in test [11] was more than 100 µM each time.
As to `CCOC(=O)/C=C1/C(CCCOCc2ccccc2)C2CCCC23CC2(CCN13)OCCO2` (stereo not given), the TGI was 51.5 µM in test [3]; more than 100 µM in test [5]; 83.9 µM in test [8]; 50.3 µM in [9]; 43.8 µM in test [11].
For the compound `Cc1ccsc1/C=N/Nc1cnccn1`, the TGI in [1], in test [2], in test [3], in [4], in test [5] and in [6] was more than 100 µM each time. The TGI in test [7], in [8], in test [9], in test [10] and in [11] was more than 100 µM in each case.
In the case of `O=C(O)c1cccc(S(=O)(=O)NN2C(=O)CSC2c2ccc(Cl)cc2Cl)c1` (stereo not given), the TGI in test [1] is 58.4 µM; in test [12], more than 100 µM; in test [2] it was 83.1 µM; in [3], more than 100 µM; in test [4] it was 29.4 µM; in test [5] it was more than 100 µM. Moreover, the TGI in test [7] is more than 100 µM; in test [8], more than 100 µM; in test [9], more than 100 µM; in test [10], 47 µM; in test [11], more than 100 µM.
For `O=C(NN1C(=O)CS(=O)(=O)C1c1ccc(C(F)(F)F)cc1)c1ccncc1` (stereo not given), the TGI in test [2], in test [3], in test [5], in test [7], in [8] and in test [9] was more than 100 µM throughout. The compound further returned a TGI in test [11] of more than 100 µM.
